The results in this text go back to patent publication US11649255B2, “Indazoles as hematopoietic progenitor kinase 1 (HPK1) inhibitors and methods using same” (1st Biotherapeutics, Inc., priority 2020, dated 2023).

What is called IC50 is the concentration needed to halve the response being measured.

For this assay, the target named is recombinant human HPK1 (Homo sapiens (Human), UniProt Q92918). The assay can be described thus: HPK1 kinase assay (ADP-Glo). In kind it is biochemical. As to conditions: 25 μM ATP, MBP substrate. The method in brief:
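Activity was read as ADP formed, detected by ADP-Glo luminescence after the reaction of 5 ng recombinant human HPK1 with MBP and ATP (stocks 0.5 μg/μl and 25 μM) for 40 min at 30 °C. Buffer was Tris pH 7.5 with MgCl2, BSA and DTT, with compound in 0.5% DMSO. IC50 came from inhibition curves.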
In general terms: In ADP-Glo the light output rises with the ADP produced.

recombinant human HPK1, sequence (Q92918 whole entry): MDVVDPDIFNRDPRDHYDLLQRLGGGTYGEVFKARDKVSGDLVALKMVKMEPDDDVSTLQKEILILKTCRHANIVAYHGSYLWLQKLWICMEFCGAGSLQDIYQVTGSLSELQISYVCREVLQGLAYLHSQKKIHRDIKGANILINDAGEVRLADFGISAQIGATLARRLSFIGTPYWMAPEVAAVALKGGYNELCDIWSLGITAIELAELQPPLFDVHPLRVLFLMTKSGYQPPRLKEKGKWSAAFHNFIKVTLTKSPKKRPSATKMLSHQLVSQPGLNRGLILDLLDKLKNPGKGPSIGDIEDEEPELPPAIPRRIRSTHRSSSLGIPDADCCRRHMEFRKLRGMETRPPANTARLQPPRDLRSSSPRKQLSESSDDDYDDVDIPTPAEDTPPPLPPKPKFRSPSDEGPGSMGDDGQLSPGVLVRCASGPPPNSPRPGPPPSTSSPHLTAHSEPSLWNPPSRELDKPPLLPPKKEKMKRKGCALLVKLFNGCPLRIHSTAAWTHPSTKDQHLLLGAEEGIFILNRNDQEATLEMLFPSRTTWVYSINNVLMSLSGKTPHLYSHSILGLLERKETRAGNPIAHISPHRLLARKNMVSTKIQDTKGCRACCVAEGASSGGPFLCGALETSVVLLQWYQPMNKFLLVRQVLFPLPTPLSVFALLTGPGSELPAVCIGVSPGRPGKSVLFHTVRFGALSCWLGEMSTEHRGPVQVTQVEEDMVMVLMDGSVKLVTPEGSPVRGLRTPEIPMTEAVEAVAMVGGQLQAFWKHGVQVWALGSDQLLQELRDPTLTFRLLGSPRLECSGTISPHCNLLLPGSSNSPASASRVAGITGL

Consider `CNC(=O)c1c(F)c(C)c(-c2ccc3nc(NC(=O)[C@@H]4C[C@@H]4F)sc3n2)c2cn[nH]c12` [Example 206, 6-fluoro-4-(2-((1S,2S)-2-fluorocyclopropane-1-carboxamido)thiazolo[5,4-b]pyridin-5-yl)-N,5-dimethyl-1H-indazole-7-carboxamide], for which the IC50 lay within 101 to 500 nM.
Under `CN(C)c1c(F)c(C(F)(F)F)c(-c2ccc3nc(NC(=O)[C@@H]4C[C@@H]4F)sc3n2)c2cn[nH]c12` [Example 207, (1S,2S)-N-(5-(7-(dimethylamino)-6-fluoro-5-(trifluoromethyl)-1H-indazol-4-yl)thiazolo[5,4-b]pyridin-2-yl)-2-fluorocyclopropane-1-carboxamide] stands less than 100 nM; under `O=C(Nc1nc2ccc(-c3c(Cl)c(F)c(F)c4[nH]ncc34)nc2s1)[C@@H]1C[C@@H]1F` [Example 208, (1S,2S)-N-(5-(5-chloro-6,7-difluoro-1H-indazol-4-yl)thiazolo[5,4-b]pyridin-2-yl)-2-fluorocyclopropane-1-carboxamide 2,2,2-trifluoroacetate], less than 100 nM; under `O=C(Nc1nc2ccc(-c3c(Cl)c(F)c(C(F)F)c4[nH]ncc34)nc2s1)[C@@H]1C[C@@H]1F` [Example 209, (1S,2S)-N-(5-(5-chloro-7-(difluoromethyl)-6-fluoro-1H-indazol-4-yl)thiazolo[5,4-b]pyridin-2-yl)-2-fluorocyclopropane-1-carboxamide], less than 100 nM.
In the case of `CCc1c(F)c(C(F)(F)F)c2[nH]ncc2c1-c1ccc2nc(NC(=O)[C@@H]3C[C@@H]3F)sc2n1` [Example 210, (1S,2S)-N-(5-(5-ethyl-6-fluoro-7-(trifluoromethyl)-1H-indazol-4-yl)thiazolo[5,4-b]pyridin-2-yl)-2-fluorocyclopropane-1-carboxamide], the IC50 was less than 100 nM.
Under `Cc1c(F)c(Cl)c(-c2ccc3nc(NC(=O)[C@@H]4C[C@@H]4F)sc3n2)c2cn[nH]c12` [Example 211, (1S,2S)-N-(5-(5-chloro-6-fluoro-7-methyl-1H-indazol-4-yl)thiazolo[5,4-b]pyridin-2-yl)-2-fluorocyclopropane-1-carboxamide] stands less than 100 nM; under `CSc1ccc(-c2ccc3nc(NC(=O)[C@@H]4C[C@@H]4F)sc3n2)c2cn[nH]c12` [Example 212, (1S,2S)-2-fluoro-N-(5-(7-(methylthio)-1H-indazol-4-yl)thiazolo[5,4-b]pyridin-2-yl)cyclopropane-1-carboxamide], more than 1000 nM; under `Cc1c(F)c(OC(F)(F)F)c2[nH]ncc2c1-c1ccc2nc(NC(=O)[C@@H]3C[C@@H]3F)sc2n1` [Example 213, (1S,2S)-2-fluoro-N-(5-(6-fluoro-5-methyl-7-(trifluoromethoxy)-1H-indazol-4-yl)thiazolo[5,4-b]pyridin-2-yl)cyclopropane-1-carboxamide], more than 1000 nM.
Then `CN(C)c1c(F)cc(-c2ccc3nc(NC(=O)[C@@H]4C[C@@H]4F)sc3n2)c2cn[nH]c12` [Example 214, (1S,2S)-N-(5-(7-(dimethylamino)-6-fluoro-1H-indazol-4-yl)thiazolo[5,4-b]pyridin-2-yl)-2-fluorocyclopropane-1-carboxamide], with more than 1000 nM.
In the case of `O=C(Nc1nc2ccc(-c3cc(F)c(OC(F)(F)F)c4[nH]ncc34)nc2s1)[C@@H]1C[C@@H]1F` [Example 215, (1S,2S)-2-fluoro-N-(5-(6-fluoro-7-(trifluoromethoxy)-1H-indazol-4-yl)thiazolo[5,4-b]pyridin-2-yl)cyclopropane-1-carboxamide], the IC50 was more than 1000 nM.
Then `CN(C)c1ccc(-c2ccc3nc(NC(=O)[C@@H]4C[C@@H]4F)sc3n2)c2cn[nH]c12` [Example 216, (1S,2S)-N-(5-(7-(dimethylamino)-1H-indazol-4-yl)thiazolo[5,4-b]pyridin-2-yl)-2-fluorocyclopropane-1-carboxamide], with more than 1000 nM.
